Laboratory results as given in DBAASP.
Converted amounts (≈) assume the structure as drawn. Each block holds one compound with its values, some of them ahead of it.

Legend:
Assay in all cases: ≥ marks a high value that may be exact or a test limit, other limits are often not marked, values filed in µg/mL are converted to µM
[1] = system: Listeria monocytogenes LO28
[2] = system: Cronobacter sakazakii DPC 6440
[3] = system: Botrytis cinerea
[4] = system: Pseudomonas syringae pv. tomato DC3000
[5] = system: Pectobacterium carotovorum subsp. carotovorum DSM 30168
[6] = system: Pseudomonas corrugata DSM 7228
[7] = system: Clavibacter michiganensis subsp. michiganensis DSM 46294
[8] = system: Alternaria alternata
[9] = system: Cladosporium herbarum
[10] = system: Pseudomonas syringae pv. syringae DSM 10604
[11] = system: Xanthomonas vesicatoria DSM 50861
[12] = system: Staphylococcus aureus 90857
[13] = system: Staphylococcus aureus ATCC 6538
[14] = system: Escherichia coli ATCC 11219
[15] = system: Salmonella enterica subsp. enterica serovar Typhimurium ATCC 14028
[16] = system: Klebsiella pneumoniae ATCC 10031
[17] = system: Pseudomonas aeruginosa ATCC 13388
[18] = system: Staphylococcus aureus ATCC 25923
[19] = system: Pseudomonas aeruginosa ATCC 47085
[20] = system: Staphylococcus aureus ATCC 29213
[21] = system: Klebsiella pneumoniae ATCC 700603
[22] = system: Escherichia coli ATCC 25922
[23] = system: Staphylococcus aureus ATCC 33591
[24] = system: Pseudomonas aeruginosa ATCC 27853
[25] = system: Staphylococcus aureus ATCC 700699
[26] = system: Staphylococcus aureus BCRC 10780
[27] = system: Vibrio alginolyticus
[28] = system: Staphylococcus sp. BCRC 10451
[29] = system: Vibrio harveyi BCRC 13812
[30] = system: Streptococcus pneumoniae BCRC 10794

Structure (SMILES): CC[C@H](C)[C@H](NC(=O)[C@@H](N)Cc1c[nH]c2ccccc12)C(=O)N[C@@H](CCC(N)=O)C(=O)N1CCC[C@H]1C(=O)N[C@@H](CCCCN)C(=O)N[C@H](C(=O)N[C@@H](CCCCN)C(=O)N[C@@H](C)C(=O)N[C@H](C(=O)N1CCC[C@H]1C(=O)N[C@@H](Cc1ccc(O)cc1)C(=O)N[C@H](C(=O)N[C@@H](CCCN=C(N)N)C(=O)N[C@@H](Cc1ccc(O)cc1)C(=O)N[C@@H](CC(C)C)C(=O)O)C(C)C)[C@@H](C)CC)[C@@H](C)O [WIQPKTKAIPYVRYL]
MIC [1]: 19.5 µM (≈ 36.6 µg/mL)
MIC [2]: ≥ 78.1 µM

Structure (SMILES): CC(C)C[C@H](NC(=O)[C@H](C)NC(=O)[C@H](CCCN=C(N)N)NC(=O)[C@H](CCCCN)NC(=O)[C@H](CC(C)C)NC(=O)[C@H](C)NC(=O)[C@H](CCCN=C(N)N)NC(=O)[C@H](C)NC(=O)[C@H](C)NC(=O)[C@H](CCCCN)NC(=O)[C@H](CCCCN)NC(=O)[C@@H](N)CCCCN)C(N)=O [KKKAARALKRAL]
MIC [3]: ≥ 73.9 µM
MIC [4]: 7.39 µM (≈ 9.99 µg/mL)
MIC [5]: 29.5 µM (≈ 40 µg/mL)
MIC [6]: 29.5 µM (≈ 40 µg/mL)
MIC [7]: 29.5 µM (≈ 40 µg/mL)
MIC [8]: ≥ 73.9 µM
MIC [9]: 29.5 µM (≈ 40 µg/mL)
MIC [10]: 29.5 µM (≈ 40 µg/mL)
MIC [11]: 29.5 µM (≈ 40 µg/mL)

Structure (SMILES): CC[C@H](C)[C@H](NC(=O)[C@H](CCCN=C(N)N)NC(=O)[C@H](CC(C)C)NC(=O)[C@H](Cc1ccccc1)NC(=O)[C@H](CCC(=O)O)NC(=O)[C@H](CCCCN)NC(=O)[C@H](Cc1c[nH]c2ccccc12)NC(=O)[C@H](CCCCN)NC(=O)[C@H](Cc1c[nH]c2ccccc12)NC(=O)CNC(=O)[C@H](Cc1c[nH]c2ccccc12)NC(=O)[C@H](CCCCN)NC(=O)[C@H](Cc1c[nH]c2ccccc12)NC(=O)[C@H](CC(C)C)NC(=O)[C@H](CC(C)C)NC(=O)CN)C(=O)N[C@H](C(=O)NCC(=O)N[C@@H](Cc1ccc(O)cc1)C(N)=O)C(C)C [GLLWKWGWKWKEFLRIVGY]
MIC [18]: > 415 µM
MIC [19]: ≥ 415 µM

Structure (SMILES): CC[C@H](C)[C@H](NC(=O)[C@@H](N)Cc1c[nH]c2ccccc12)C(=O)N[C@@H](CCC(N)=O)C(=O)N1CCC[C@H]1C(=O)N[C@@H](CCCCN)C(=O)N[C@H](C(=O)N[C@@H](CCCCN)C(=O)N[C@H](C(=O)N[C@H](C(=O)N1CCC[C@H]1C(=O)N[C@@H](Cc1ccc(O)cc1)C(=O)N[C@H](C(=O)O)C(C)C)[C@@H](C)CC)C(C)C)[C@@H](C)O [WIQPKTKVIPYV]
MIC [1]: ≥ 156 µM
MIC [2]: ≥ 625 µM

Structure (SMILES): CC[C@H](C)[C@H](NC(=O)[C@H](CC(=O)O)NC(=O)[C@H](CCCCN)NC(=O)[C@H](C)NC(=O)[C@H](C)NC(=O)CNC(=O)[C@H](CCCCN)NC(=O)[C@H](C)NC(=O)[C@@H](NC(=O)[C@H](CC(=O)O)NC(=O)[C@@H](NC(=O)[C@@H](NC(=O)CN)C(C)C)C(C)C)[C@@H](C)CC)C(=O)N[C@@H](C)C(=O)NCC(=O)N[C@@H](Cc1cnc[nH]1)C(=O)N[C@@H](CC(C)C)C(=O)N[C@@H](C)C(=O)N[C@@H](CO)C(=O)N[C@@H](CCCCN)C(=O)N[C@H](C(=O)N[C@@H](CCSC)C(=O)N[C@@H](CC(N)=O)C(=O)N[C@@H](CCCCN)C(=O)N[C@@H](CC(C)C)C(N)=O)C(C)C [GVVDIAKGAAKDIAGHLASKVMNKL]
MIC [20]: > 100 µM
MIC [21]: > 100 µM
MIC [22]: > 100 µM
MIC [23]: ≥ 100 µM
MIC [24]: > 100 µM
MIC [25]: ≥ 100 µM

The remaining lines, values ahead:

MIC [4]: 0.332 µM (≈ 0.5 µg/mL)
MIC [12]: 0.625 µM (≈ 0.94 µg/mL)
MIC [5]: 0.664 µM (≈ 0.999 µg/mL)
MIC [6]: 0.332 µM (≈ 0.5 µg/mL)
MIC [7]: 0.166 µM (≈ 0.25 µg/mL)
MIC [10]: 0.0664 µM (≈ 0.0999 µg/mL)
MIC [11]: 0.166 µM (≈ 0.25 µg/mL)
Structure (SMILES): CC(C)C[C@H](NC(=O)[C@H](C)NC(=O)[C@H](CCCCN)NC(=O)[C@H](CCCCN)NC(=O)[C@H](CC(C)C)NC(=O)[C@H](Cc1ccccc1)NC(=O)[C@H](CCCN=C(N)N)NC(=O)[C@@H](N)CC(C)C)C(=O)N[C@@H](CCCCN)C(=O)N[C@@H](CCCCN)C(=O)N[C@@H](CC(C)C)C(=O)N[C@@H](Cc1ccccc1)C(N)=O [LRFLKKALKKLF]

MIC [13]: 10 µM (≈ 13.4 µg/mL)
MIC [14]: 5 µM (≈ 6.7 µg/mL)
MIC [15]: 10 µM (≈ 13.4 µg/mL)
MIC [16]: 10 µM (≈ 13.4 µg/mL)
MIC [17]: 15 µM (≈ 20.1 µg/mL)
Structure (SMILES): CC[C@H](C)[C@H](NC(=O)CN)C(=O)N[C@@H](Cc1cnc[nH]1)C(=O)N[C@@H](CC(=O)O)C(=O)N[C@H](C(=O)N[C@@H](CC(C)C)C(=O)N[C@@H](CCCCN)C(=O)N[C@@H](Cc1ccc(O)cc1)C(=O)N[C@@H](C)C(=O)N[C@@H](CCCCN)C(=O)N1CCC[C@H]1C(=O)N[C@@H](CO)C(N)=O)[C@@H](C)CC [GIHDILKYAKPS]

MIC [13]: 10 µM (≈ 13.5 µg/mL)
MIC [14]: 5 µM (≈ 6.73 µg/mL)
MIC [15]: 5 µM (≈ 6.73 µg/mL)
MIC [16]: 5 µM (≈ 6.73 µg/mL)
MIC [17]: 20 µM (≈ 26.9 µg/mL)
Structure (SMILES): CC[C@H](C)[C@H](NC(=O)CN)C(=O)N[C@@H](CCCN=C(N)N)C(=O)N[C@@H](CC(=O)O)C(=O)N[C@H](C(=O)N[C@@H](CC(C)C)C(=O)N[C@@H](CCCCN)C(=O)N[C@@H](Cc1ccc(O)cc1)C(=O)NCC(=O)N[C@@H](CCCCN)C(=O)N1CCC[C@H]1C(=O)N[C@@H](CO)C(N)=O)[C@@H](C)CC [GIRDILKYGKPS]

MIC [3]: ≥ 70 µM
MIC [4]: 28 µM (≈ 40 µg/mL)
MIC [12]: ≥ 62.5 µM
MIC [5]: 28 µM (≈ 40 µg/mL)
MIC [6]: 28 µM (≈ 40 µg/mL)
MIC [7]: 28 µM (≈ 40 µg/mL)
MIC [8]: ≥ 70 µM
MIC [9]: 28 µM (≈ 40 µg/mL)
MIC [10]: 28 µM (≈ 40 µg/mL)
MIC [11]: 28 µM (≈ 40 µg/mL)
Structure (SMILES): CC[C@H](C)[C@H](NC(=O)[C@H](CC(C)C)NC(=O)[C@@H](N)CC(C)C)C(=O)N[C@@H](CCCN=C(N)N)C(=O)N[C@@H](C)C(=O)N[C@@H](C)C(=O)N[C@@H](CCCCN)C(=O)N[C@@H](CCCCN)C(=O)N[C@@H](Cc1ccccc1)C(=O)N[C@H](C(=O)N[C@@H](CCCCN)C(=O)N[C@@H](CCCCN)C(N)=O)[C@@H](C)CC [LLIRAAKKFIKK]

MIC [26]: 5.06 µM (≈ 6.46 µg/mL)
MIC [27]: 5.06 µM (≈ 6.46 µg/mL)
MIC [28]: 5.06 µM (≈ 6.46 µg/mL)
MIC [29]: 5.06 µM (≈ 6.46 µg/mL)
Structure (SMILES): CC[C@H](C)[C@H](NC(=O)[C@H](Cc1ccccc1)NC(C)=O)C(=O)N[C@@H](Cc1ccccc1)C(=O)N[C@@H](Cc1cnc[nH]1)C(=O)N[C@H](C(=O)N[C@H](C(=O)N[C@@H](CCCCN)C(=O)NCC(=O)N[C@@H](CC(C)C)C(=O)N[C@@H](Cc1ccccc1)C(N)=O)[C@@H](C)CC)[C@@H](C)CC [FIFHIIKGLF]

MIC [26]: ≥ 161 µM
MIC [30]: ≥ 161 µM
Structure (SMILES): CC[C@H](C)[C@H](NC(=O)[C@H](Cc1ccccc1)NC(=O)CNC(C)=O)C(=O)N[C@@H](Cc1ccccc1)C(=O)N[C@@H](Cc1cnc[nH]1)C(N)=O [GFIFH]
